We go through 13 compounds from ChEMBL document CHEMBL1926663, “Identification of new aminoacid amides containing the imidazo[2,1-b]benzothiazol-2-ylphenyl moiety as inhibitors of tumorigenesis by oncogenic Met signaling” (Eur J Med Chem, 2012).

Molecules are shown by their SMILES.

Data set [1] can be described thus: Chemical stability in solid state. It is filed as physicochemical.
The nature of data set [2]: Chemical stability in chloroform. It is filed as physicochemical.
A short description of data set [3]: Chemical stability in DMSO. In kind it is physicochemical.
Data set [4] is described as follows: Chemical stability in methanol. It is filed as physicochemical.
Data set [5] has as its system MDCK. As to the kind of experiment: Cytotoxicity against HGF-stimulated […] MDCK cells at 50 to 100 fold higher biologically active concentration. It is filed as cell-based.
Data set [6] concerns MDCK. As to the kind of experiment: Cytotoxicity against HGF-stimulated […] MDCK cells at biologically active concentration. It is filed as cell-based.

For `Cc1cc(C)cc(CC(=O)N[C@H](Cc2ccccc2)C(=O)Nc2ccc(-c3cn4c5c(sc4n3)CN(Cc3ccccc3)CC5)cc2)c1`, the Stability result in data set [1], in data set [2], in data set [3] and in data set [4] was “Stable” in each case.

On to `C[C@@H](NC(=O)Cc1cc(F)cc(F)c1)C(=O)Nc1ccc(-c2cn3c4c(sc3n2)CCN(Cc2ccccc2)C4)cc1`, for which the Stability result in data set [1], in data set [2], in data set [3] and in data set [4] was “Stable” each time.

As to `O=C(Cc1cc(C(F)(F)F)cc(C(F)(F)F)c1)N[C@@H](Cc1ccccc1)C(=O)Nc1ccc(-c2cn3c(n2)sc2cc(Br)ccc23)cc1`, the Activity entry in data set [5] is listed as “Toxic”; in data set [6], “Non-toxic”. Further, the Stability result in data set [1], in data set [2], in data set [3] and in data set [4] was “Stable” each time.

Take `Cc1cc(C)cc(CC(=O)N[C@@H](Cc2ccccc2)C(=O)Nc2ccc(-c3cn4c5c(sc4n3)CCCC5)cc2)c1`: the Stability entry in data set [1], in data set [2], in data set [3] and in data set [4] was “Stable” in each case.

For the compound `Cc1cc(C)cc(CC(=O)N[C@H](Cc2ccccc2)C(=O)Nc2ccc(-c3cn4c(n3)sc3ccccc34)cc2)c1`, the Activity result in data set [5] is recorded as “Toxic”; in data set [6], “Non-toxic”. Besides, the Stability entry in data set [1], in data set [2], in data set [3] and in data set [4] was “Stable” each time.

For `Cc1ccc(C[C@H](NC(=O)Cc2cc(C(F)(F)F)cc(C(F)(F)F)c2)C(=O)Nc2ccc(-c3cn4c(n3)sc3ccccc34)cc2)cc1`, the Stability entry in data set [1], in data set [2], in data set [3] and in data set [4] was “Stable” in each case.

In the case of `Cc1ccc(C[C@H](NC(=O)Cc2cc(C)cc(C)c2)C(=O)Nc2ccc(-c3cn4c(n3)sc3ccccc34)cc2)cc1`, the Stability entry in data set [1], in data set [2], in data set [3] and in data set [4] was “Stable” in each case.

Regarding `O=C(Cc1cc(F)cc(F)c1)NCCC(=O)Nc1ccc(-c2cn3c4c(sc3n2)CN(Cc2ccccc2)CC4)cc1`, the Stability entry in data set [1], in data set [2], in data set [3] and in data set [4] was “Stable” each time.

As to `O=C(Cc1cc(F)cc(F)c1)NCCC(=O)Nc1ccc(-c2cn3c4c(sc3n2)CCN(Cc2ccccc2)C4)cc1`, the Stability entry in data set [1], in data set [2], in data set [3] and in data set [4] was “Stable” throughout.

For `Cc1cc(C)cc(CC(=O)N[C@@H](Cc2ccccc2)C(=O)Nc2ccc(-c3cn4c5c(sc4n3)CN(Cc3ccccc3)CC5)cc2)c1`, the Stability result in data set [1], in data set [2], in data set [3] and in data set [4] was “Stable” in each case.

With `Cc1cc(C)cc(CC(=O)N[C@@H](Cc2ccc(O)cc2)C(=O)Nc2ccc(-c3cn4c(n3)sc3ccccc34)cc2)c1`, the Stability result in data set [1], in data set [2], in data set [3] and in data set [4] was “Stable” in each case.

With `O=C(Cc1cc(F)cc(F)c1)N[C@@H](CS)C(=O)Nc1ccc(-c2cn3c4c(sc3n2)CN(Cc2ccccc2)CC4)cc1`, the Stability entry in data set [1], in data set [2], in data set [3] and in data set [4] was “Stable” in each case.

Consider `C[C@H](NC(=O)Cc1cc(F)cc(F)c1)C(=O)Nc1ccc(-c2cn3c4c(sc3n2)CCN(Cc2ccccc2)C4)cc1`, for which the Stability result in data set [1], in data set [2], in data set [3] and in data set [4] was “Stable” throughout.
